Test results published in PubChem BioAssay AID1745844 (Carcinogenic Potency Database (CPDB), 2022).
Active and inactive are the calls of the source. How the calls were made is not given here.

System: rodent lifetime carcinogenesis bioassay, tumor incidence TD50
Assay: chronic cancer bioassays in animals – CPDB, compiled studies (AID 1745844)

CCCCC/C=N/N(C)C=O
TD50 (mouse, strain Swiss, females, by gavage, site: liver, lesion: hepatocellular carcinoma, dosed 52 weeks, study length 122 weeks): 180 mg/kg/day | TD50 (mouse, strain Swiss, females, by gavage, site: liver, lesion: hepatoma, benign, dosed 52 weeks, study length 122 weeks): 23.3 mg/kg/day | TD50 (mouse, strain Swiss, females, by gavage, site: liver, lesion: several types, types named in the paper, dosed 52 weeks, study length 122 weeks): 19.9 mg/kg/day | TD50 (mouse, strain Swiss, females, by gavage, site: lung, lesion: adenocarcinoma, dosed 52 weeks, study length 122 weeks): 8.73 mg/kg/day | TD50 (mouse, strain Swiss, females, by gavage, site: lung, lesion: adenoma, dosed 52 weeks, study length 122 weeks): 4.68 mg/kg/day | TD50 (mouse, strain Swiss, females, by gavage, site: lung, lesion: several types, types named in the paper, dosed 52 weeks, study length 122 weeks): 2.96 mg/kg/day | TD50 (mouse, strain Swiss, males, by gavage, site: liver, lesion: hepatocellular carcinoma, dosed 52 weeks, study length 128 weeks): 115 mg/kg/day | TD50 (mouse, strain Swiss, males, by gavage, site: liver, lesion: hepatoma, benign, dosed 52 weeks, study length 128 weeks): 45.4 mg/kg/day | TD50 (mouse, strain Swiss, males, by gavage, site: liver, lesion: several types, types named in the paper, dosed 52 weeks, study length 128 weeks): 31.4 mg/kg/day | TD50 (mouse, strain Swiss, males, by gavage, site: lung, lesion: adenocarcinoma, dosed 52 weeks, study length 128 weeks): 5.52 mg/kg/day | TD50 (mouse, strain Swiss, males, by gavage, site: lung, lesion: adenoma, dosed 52 weeks, study length 128 weeks): 6.63 mg/kg/day | TD50 (mouse, strain Swiss, males, by gavage, site: lung, lesion: several types, types named in the paper, dosed 52 weeks, study length 128 weeks): 1.92 mg/kg/day | TD50 (mouse, strain Swiss, males, by gavage, site: preputial gland, lesion: several types, types named in the paper, dosed 52 weeks, study length 128 weeks): 6.51 mg/kg/day | TD50 (mouse, strain Swiss, males, by gavage, site: preputial gland, lesion: squamous-cell carcinoma, dosed 52 weeks, study length 128 weeks): 8.03 mg/kg/day | TD50 (mouse, strain Swiss, males, by gavage, site: preputial gland, lesion: squamous-cell papilloma, dosed 52 weeks, study length 128 weeks): 93.3 mg/kg/day

O=C(O)CNCC(=O)O
TD50 (rat, strain MRC, females, in drinking water, site: any site (literature study), lesion: several types, types named in the paper, dosed 84 weeks, study length 104 weeks): 143 mg/kg/day (inactive) | carcinogen call (rat, strain MRC, males, in drinking water, site: any site (literature study), lesion: several types, types named in the paper, dosed 84 weeks, study length 104 weeks): negative (inactive)

Cc1ccc(Cl)cc1N
TD50 (mouse, strain B6C3F1, females, in feed, site: all sites + liver, lesion: hemangiosarcoma + hepatocellular adenoma + hepatocellular carcinoma, dosed 78 weeks, study length 91 weeks): 143 mg/kg/day | TD50 (mouse, strain B6C3F1, females, in feed, site: all sites, lesion: hemangiosarcoma, dosed 78 weeks, study length 91 weeks): 373 mg/kg/day | TD50 (mouse, strain B6C3F1, females, in feed, site: any site (literature study), lesion: several types, types named in the paper, dosed 78 weeks, study length 91 weeks): 164 mg/kg/day | TD50 (mouse, strain B6C3F1, females, in feed, site: liver, lesion: hepatocellular adenoma + hepatocellular carcinoma + neoplastic nodule, dosed 78 weeks, study length 91 weeks): 180 mg/kg/day | TD50 (mouse, strain B6C3F1, females, in feed, site: liver, lesion: hepatocellular adenoma + hepatocellular carcinoma, dosed 78 weeks, study length 91 weeks): 180 mg/kg/day | TD50 (mouse, strain B6C3F1, females, in feed, site: liver, lesion: hepatocellular carcinoma, dosed 78 weeks, study length 91 weeks): 217 mg/kg/day | TD50 (mouse, strain B6C3F1, females, in feed, site: lung, lesion: alveolar/bronchiolar adenoma + alveolar/bronchiolar carcinoma, dosed 78 weeks, study length 91 weeks): 7480 mg/kg/day | TD50 (mouse, strain B6C3F1, males, in feed, site: all sites + liver, lesion: hemangiosarcoma + hepatocellular adenoma + hepatocellular carcinoma, dosed 78 weeks, study length 91 weeks): 134 mg/kg/day | TD50 (mouse, strain B6C3F1, males, in feed, site: all sites, lesion: hemangiosarcoma, dosed 78 weeks, study length 91 weeks): 213 mg/kg/day | TD50 (mouse, strain B6C3F1, males, in feed, site: any site (literature study), lesion: several types, types named in the paper, dosed 78 weeks, study length 91 weeks): 132 mg/kg/day | TD50 (mouse, strain B6C3F1, males, in feed, site: liver, lesion: hepatocellular adenoma + hepatocellular carcinoma + neoplastic nodule, dosed 78 weeks, study length 91 weeks): 249 mg/kg/day | TD50 (mouse, strain B6C3F1, males, in feed, site: liver, lesion: hepatocellular adenoma + hepatocellular carcinoma, dosed 78 weeks, study length 91 weeks): 249 mg/kg/day | TD50 (mouse, strain B6C3F1, males, in feed, site: liver, lesion: hepatocellular carcinoma, dosed 78 weeks, study length 91 weeks): 271 mg/kg/day | carcinogen call (rat, strain Fischer 344, females, in feed, site: any site (literature study), lesion: several types, types named in the paper, dosed 78 weeks, study length 103 weeks): negative (inactive) | TD50 (rat, strain Fischer 344, males, in feed, site: adrenal gland, lesion: pheochromocytoma, dosed 78 weeks, study length 103 weeks): 714 mg/kg/day (inactive) | TD50 (rat, strain Fischer 344, males, in feed, site: any site (literature study), lesion: several types, types named in the paper, dosed 78 weeks, study length 103 weeks): 1020 mg/kg/day | TD50 (rat, strain Fischer 344, males, in feed, site: liver, lesion: hepatocellular adenoma + hepatocellular carcinoma + neoplastic nodule, dosed 78 weeks, study length 103 weeks): 3340 mg/kg/day

[O]=[W](=[O])([OH])[OH]
carcinogen call (rat, strain Long-Evans BLU:(LE), females, in drinking water, site: any site (literature study), lesion: malignant tumor, dosed 149 weeks, study length 149 weeks): negative (inactive) | carcinogen call (rat, strain Long-Evans BLU:(LE), females, in drinking water, site: any site (literature study), lesion: several types, types named in the paper, dosed 149 weeks, study length 149 weeks): negative (inactive) | TD50 (rat, strain Long-Evans BLU:(LE), males, in drinking water, site: any site (literature study), lesion: malignant tumor, dosed 136 weeks, study length 136 weeks): 87.7 mg/kg/day (inactive) | TD50 (rat, strain Long-Evans BLU:(LE), males, in drinking water, site: any site (literature study), lesion: several types, types named in the paper, dosed 136 weeks, study length 136 weeks): 40.1 mg/kg/day (inactive)
